Experimental data as given in patent US8637092B2, “Pharmaceutical composition for treating diabetes and its process for preparation” (Tasly Pharmaceutical Group Co., Ltd., priority 2007, dated 2014).

System: STZ high-blood-glucose rats
Assay: Efficacy test: blood glucose in streptozotocin (STZ) induced high-blood-glucose rats
Type: in vivo
Settings: STZ model male SD rats, mean ± SD, n = 10
Description: Sixty of male SD rats with SPF grade, weighed 200-220 g. Tested drugs (TL-1, TL-2 and TL-3) were powder of the extract respectively prepared by Examples 3, 8 and 9. SD rats were fasted overnight after one-week adaptation, intraperitoneal and injected a solution of 2% (W/V) STZ prepared with […] citric acid buffer solution (pH 4.4) (65 mg/kg). Three days later, the blood was sampled from tail vein to assay blood glucose. Those animals with blood glucose level equal to or higher than 16.7 mmol/L were considered to be successful model. The modeled rats were randomly divided into model group, Metformin (125 mg/kg) group and different treatment groups (corresponding to 15.5 g crude drugs/kg). After one-week adaptation and the blood glucose detection, rats were administered by gastric infusion, once a day. All of the drugs were diluted with physiological saline to prepare into suspension for administration. Animals were free to access of food and water during the 15-day testing period. At the seventh and fourteenth day after administration, the rats were fasted for two hours after administration. Respectively, blood was sampled from tail vein to assay blood glucose with blood glucose meter (one-touch ultra). At the same time, the body weights of the rats were measured. Results were expressed as mean±SD ( X±SD), and t-test was used to evaluate the significant difference of measurement data between two groups.

[1] = gastric infusion once a day, Metformin 125 mg/kg, TL 15.5 g crude drugs/kg, fasted 2 h, tail vein blood

In the case of `CN(C)C(=N)N=C(N)N` [Metformin], the “Blood glucose level before administration” value (baseline before gastric infusion) is reported as 21.61 ± 2.066 mmol/L, the “Blood glucose level, 14 days after administration” value [1] is reported as 17.54 ± 1.222 mmol/L and the “blood glucose level, 7 days after administration” value [1] is reported as 18.64 ± 0.783 mmol/L.
